Experimental data published in PMC5418920 (The Open Medicinal Chemistry Journal, 2017).

What follows are molecules tested against ALR2 (Rattus norvegicus, UniProt P07943) (assay: ALR2 enzymatic inhibition, spectrophotometric NADPH oxidation at 340 nm). Conditions: not given.
Format: biochemical

IC50 [µM] | SMILES
4.97 | COc1ccc(C2(C)CC3(CN(CC(=O)O)C(=O)CO3)c3cc(Br)ccc3O2)cc1 (centres unmarked) [Compound 4, 2-(6-Bromo-2-(4-methoxyphenyl)-2-methyl-5'-oxospiro[chroman-4,2'-morpholin]-4'-yl) acetic acid]
42.3 | CC1(C)CC2(CN(CC(=O)O)C(=O)O2)c2ccccc2O1 (centres unmarked) [Compound 5, 2-(2,2-Dimethyl-2'-oxospiro[chroman-4,5'-oxazolidin]-3'-yl) acetic acid]
17.3 | CC1(C)CC2(CN(CC(=O)O)C(=O)O2)c2cc(Br)ccc2O1 (centres unmarked) [Compound 6, 2-(6-Bromo-2,2-dimethyl-2'-oxospiro[chroman-4,5'-oxazolidin]-3'-yl) acetic acid]
2 | CC1(C)CC2(CN(CC(=O)O)C(=O)CO2)c2ccccc2O1 (centres unmarked) [Compound 7, 2-(2,2-Dimethyl-5'-oxospiro[chroman-4,2'-morpholin]-4'-yl) acetic acid]
4.17 | CC1(C)CC2(CN(CC(=O)O)CCO2)c2cc(Br)ccc2O1 (centres unmarked) [Compound 10, 2-(6-Bromo-2,2-dimethylspiro[chroman-4,2'-morpholin]-4'-yl) acetic acid]
4.13 | COc1cccc(COc2ccccc2C2(C)CN(CC(=O)O)C(=O)O2)c1 (centres unmarked) [Compound 11, 2-(5-(2-((3-Methoxybenzyl)oxy)phenyl)-5-methyl-2-oxooxazolidin-3-yl)acetic acid]
3.19 | COc1cc(COc2ccccc2C2(C)CN(CC(=O)O)C(=O)O2)cc(OC)c1OC (centres unmarked) [Compound 13, 2-(5-Methyl-2-oxo-5-(2-((3,4,5-trimethoxybenzyl)oxy)phenyl)oxazolidin-3-yl)acetic acid]

Same assay, conditions: IC50 4.97 vs 0.58 μM

fold reduction in ARL2 inhibitory efficacy compared to parent 2 [fold] | SMILES
~8 | COc1ccc(C2(C)CC3(CN(CC(=O)O)C(=O)CO3)c3cc(Br)ccc3O2)cc1 (centres unmarked) [Compound 4, 2-(6-Bromo-2-(4-methoxyphenyl)-2-methyl-5'-oxospiro[chroman-4,2'-morpholin]-4'-yl) acetic acid]
